Assay results taken from US20080188549A1, “Composition for Preventing and/or Treating Metabolic Syndrome and Insulin Resistance Syndrome” (Kaneka Corporation, priority 2005, published 2008).

Target: T1, PPARγ (Mus musculus, UniProt P37238)
T1 construct: GAL4 (yeast transcription factor, amino acids 1 to 147); expressed in transfected cells; host or cells: CV-1 cells (African green monkey kidney)
T1 sequence (P37238 174-475 isoform P37238-2): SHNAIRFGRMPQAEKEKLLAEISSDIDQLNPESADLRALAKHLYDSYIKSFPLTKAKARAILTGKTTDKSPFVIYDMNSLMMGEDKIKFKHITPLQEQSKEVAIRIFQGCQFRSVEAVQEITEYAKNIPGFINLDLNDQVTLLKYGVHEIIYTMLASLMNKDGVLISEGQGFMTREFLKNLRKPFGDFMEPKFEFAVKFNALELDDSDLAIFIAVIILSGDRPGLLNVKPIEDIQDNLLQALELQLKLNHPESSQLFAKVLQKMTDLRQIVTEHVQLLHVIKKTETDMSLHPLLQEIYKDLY
Assay: PPARγ ligand activity measurement (GAL4-mPPARγ chimera luciferase reporter assay in CV-1 cells)
Assay type: cell-based
Details: for Specific activity (PPARγ ligand activity relative to no-treatment control): CV-1 cells, 24 hours, n=4, 1.5 or above = having PPARγ ligand activity; for PPARγ ligand activity comparison with troglitazone: compared with troglitazone at 0.5 μM, compounds at the concentrations of Table 2
Procedure: CV-1 cells (male African green monkey kidney-derived cultured cells) were distributed into wells of a 96-well culture plate (6×10^3 cells/well) and cultured under conditions of 37° C. and 5% CO2 for 24 hours. The medium used was DMEM (Dulbecco's modified Eagle medium; GIBCO) containing 10% FBS (fetal bovine serum), 10 ml/L of penicillin-streptomycin solution (5,000 IU/ml and 5,000 μg/ml, respectively; GIBCO) and 37 mg/L of ascorbic acid (Wako Pure Chemical Industries). After rinsing with OPTI-MEM (GIBCO), the cells were transfected with pM-mPPARγ and 4×UASg-luc using Lipofectamine Plus (GIBCO). […] Each sample in the assay group was dissolved in dimethyl sulfoxide (DMSO), and DMSO was used in the no-treatment control group. The solution or DMSO was added to the medium at a level of 1/1000. After washing the cells with Ca- and Mg-containing phosphate buffered saline (PBS^+), LucLite (Packard) was added to each well, and the luciferase-due luminescence intensity was measured using Packard's TopCount microplate scintillation/luminescence counter. Using pM (plasmid deprived of the PPARγ ligand binding site gene) in lieu of pM-mPPARγ, measurements in a control group were carried out in the same manner as in the above assay group. For each sample, the ratio in mean luminescence intensity (n=4) between the assay group and control group (assay group/control group ratio) was calculated, and the specific activity relative to the no-treatment control group was regarded as the PPARγ ligand activity of the sample. When the specific activity was 1.5 or above, the sample was evaluated as having PPARγ ligand activity.

Specific activity (PPARγ ligand activity relative to no-treatment control) (10 μg/ml)	Specific activity (PPARγ ligand activity relative to no-treatment control) (20 μg/ml)	Compound	PPARγ ligand activity comparison with troglitazone
3.58	–	COc1c(/C=C/C(=O)c2cc(O)c(O)c(CC=C(C)C)c2)ccc(O)c1O [Compound 1, 3,4,3′,4′-tetrahydroxy-2-methoxy-5′-γ,γ-dimethylallylchalcone]	stronger in PPARγ ligand activity as compared with troglitazone
3.62	–	CC(C)=CCc1cc([C@@H]2CC(=O)c3ccc4c(c3O2)C=CC(C)(C)O4)ccc1O [Compound 2, shinflavanone]	stronger in PPARγ ligand activity as compared with troglitazone
–	1.90	COc1ccc(C2(O)COc3c(ccc4c3C=CC(C)(C)O4)C2=O)c(O)c1 (stereo not drawn) [Compound 3, 3,2′-dihydroxy-4′-methoxy-6″,6″-dimethylpyrano[2″,3″:7,8] isoflavanone]	stronger in PPARγ ligand activity as compared with troglitazone
